# Data published in patent publication US20240307526A1, “COMPOSITIONS COMPRISING HYDROXYETHYL-CAPPED CATIONIC PEPTOIDS” (priority 2021, published 2024).
# Assay: Efficacy and toxicology studies (Table 9), intramuscular in rat
# Settings: mouse efficacy and rat toxicology studies; formulated in DV-140-F2
smiles,measurement,value
CCCCCCCCCCN(CC(N)=O)C(=O)CN(CCCCCCCCCC)C(=O)CN(CCCCCCCCCC)C(=O)CN(CCCCCCCCCC)C(=O)CNCCO [Compound 140],tolerability,well-tolerated
